Test results: patent US9120812B2, “Pyrimidooxazocine derivatives as mTOR-inhibitors” (SANOFI, priority 2012, dated 2015)

Legend:
[1] = tested on: Akt-pS473 in U87MG cells; settings: Homo sapiens, U-87 MG, read-out: U87 Akt-pS473 % Inhibition or IC50, nM (IC50), U87MG cells
[2] = molecular target: mTOR (human recombinant aa mTOR 1360-2549) (Homo sapiens (Human), UniProt P42345); assay: mTOR enzymatic test by TR-FRET (phosphorylation of GFP-4EBP1); type: biochemical
In short: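 After a 30 min room-temperature kinase reaction, EDTA (10 mM final) and Tb-labelled phospho-Thr46 antibody (2 nM final) were added and incubated 60 min. Energy transfer from Tb to phosphorylated GFP-4EBP1 was read at 340 nm excitation, emissions 490/520 nm. Values derive from the 520/490 fluorescence ratio.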

[3] = molecular target: PI3Kα (p110α/p85α) (Homo sapiens (Human), UniProt P42336); assay: PI3Kα enzymatic test by measuring the consumption of ATP; type: biochemical
PI3Kα (p110α/p85α), sequence (P42336 whole entry): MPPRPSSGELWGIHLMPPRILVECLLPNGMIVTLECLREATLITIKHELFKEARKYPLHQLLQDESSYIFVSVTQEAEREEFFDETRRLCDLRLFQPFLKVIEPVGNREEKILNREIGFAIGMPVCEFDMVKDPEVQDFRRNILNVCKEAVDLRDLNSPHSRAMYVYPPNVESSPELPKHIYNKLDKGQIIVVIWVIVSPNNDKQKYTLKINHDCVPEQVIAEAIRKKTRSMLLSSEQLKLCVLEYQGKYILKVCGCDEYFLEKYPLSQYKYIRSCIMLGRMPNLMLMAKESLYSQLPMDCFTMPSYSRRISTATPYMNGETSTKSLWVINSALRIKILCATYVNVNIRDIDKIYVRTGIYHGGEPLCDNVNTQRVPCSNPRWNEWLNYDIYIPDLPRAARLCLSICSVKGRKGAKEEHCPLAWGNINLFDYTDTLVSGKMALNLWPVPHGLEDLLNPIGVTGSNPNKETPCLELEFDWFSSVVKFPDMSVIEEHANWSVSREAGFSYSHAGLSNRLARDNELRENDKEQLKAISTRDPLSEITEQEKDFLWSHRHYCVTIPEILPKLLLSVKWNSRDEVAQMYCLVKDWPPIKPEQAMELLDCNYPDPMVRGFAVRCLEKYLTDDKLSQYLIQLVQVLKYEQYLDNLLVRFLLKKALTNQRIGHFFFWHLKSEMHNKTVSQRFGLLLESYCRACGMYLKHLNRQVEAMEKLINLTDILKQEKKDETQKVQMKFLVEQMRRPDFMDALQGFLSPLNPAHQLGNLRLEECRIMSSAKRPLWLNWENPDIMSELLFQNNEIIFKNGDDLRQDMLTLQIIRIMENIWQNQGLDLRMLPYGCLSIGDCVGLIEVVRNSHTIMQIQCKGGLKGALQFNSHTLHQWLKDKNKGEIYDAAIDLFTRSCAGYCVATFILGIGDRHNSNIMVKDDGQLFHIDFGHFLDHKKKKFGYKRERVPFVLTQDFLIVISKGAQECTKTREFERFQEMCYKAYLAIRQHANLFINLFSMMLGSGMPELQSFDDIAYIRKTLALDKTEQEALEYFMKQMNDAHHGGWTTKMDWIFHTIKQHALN
PI3Kα (p110α/p85α), sequence (P27986 whole entry partner): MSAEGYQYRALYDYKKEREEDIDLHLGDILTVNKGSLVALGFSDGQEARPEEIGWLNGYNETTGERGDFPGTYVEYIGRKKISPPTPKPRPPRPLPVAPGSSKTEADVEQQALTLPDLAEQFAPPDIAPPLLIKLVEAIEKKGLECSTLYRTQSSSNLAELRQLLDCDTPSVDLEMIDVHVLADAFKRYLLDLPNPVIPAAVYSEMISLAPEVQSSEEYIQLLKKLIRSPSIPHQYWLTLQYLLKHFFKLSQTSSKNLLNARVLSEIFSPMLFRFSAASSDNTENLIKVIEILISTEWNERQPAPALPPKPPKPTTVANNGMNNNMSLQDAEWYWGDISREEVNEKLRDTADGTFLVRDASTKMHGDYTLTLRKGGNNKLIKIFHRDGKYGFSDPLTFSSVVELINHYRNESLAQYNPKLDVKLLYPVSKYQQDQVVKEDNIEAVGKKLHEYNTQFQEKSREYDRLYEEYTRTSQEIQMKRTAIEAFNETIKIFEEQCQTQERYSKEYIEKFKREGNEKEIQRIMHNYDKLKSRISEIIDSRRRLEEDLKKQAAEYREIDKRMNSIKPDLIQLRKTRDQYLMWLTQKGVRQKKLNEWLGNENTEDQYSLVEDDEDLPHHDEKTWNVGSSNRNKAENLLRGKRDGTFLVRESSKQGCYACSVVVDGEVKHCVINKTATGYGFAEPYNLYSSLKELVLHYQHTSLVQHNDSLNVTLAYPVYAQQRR
In short: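 ATP consumption read out by KinaseGlo luminescence after a 90 min reaction of 1.7 μg/ml PI3Kα (p110α/p85α) with 2 μM ATP and 50 μM PIP2, buffered at pH 7.5 (Tris, 10 mM MgCl2, 1 mM EGTA, 0.03% Chaps, 1 mM DTT). Threefold dilution series over ≥10 000-fold range yield IC50.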

[4] = tested on: U87MG tumour cells; assay: Test of in vitro proliferation of U87MG tumour cells; type: cell-based; settings: Homo sapiens, U-87 MG, 72 h, U87MG cells, 72 hours; read-out: U87 Cell Proliferation IC50
Procedure: Model 4: Test of in vitro Proliferation of U87MG Tumour Cells.
The cell growth is determined with the reagent CellTiter 96 AQueous One Solution Cell Proliferation Assay from Promega (Cat. No. G3581).

mTOR (human recombinant aa mTOR 1360-2549), sequence (P42345 1360-2549): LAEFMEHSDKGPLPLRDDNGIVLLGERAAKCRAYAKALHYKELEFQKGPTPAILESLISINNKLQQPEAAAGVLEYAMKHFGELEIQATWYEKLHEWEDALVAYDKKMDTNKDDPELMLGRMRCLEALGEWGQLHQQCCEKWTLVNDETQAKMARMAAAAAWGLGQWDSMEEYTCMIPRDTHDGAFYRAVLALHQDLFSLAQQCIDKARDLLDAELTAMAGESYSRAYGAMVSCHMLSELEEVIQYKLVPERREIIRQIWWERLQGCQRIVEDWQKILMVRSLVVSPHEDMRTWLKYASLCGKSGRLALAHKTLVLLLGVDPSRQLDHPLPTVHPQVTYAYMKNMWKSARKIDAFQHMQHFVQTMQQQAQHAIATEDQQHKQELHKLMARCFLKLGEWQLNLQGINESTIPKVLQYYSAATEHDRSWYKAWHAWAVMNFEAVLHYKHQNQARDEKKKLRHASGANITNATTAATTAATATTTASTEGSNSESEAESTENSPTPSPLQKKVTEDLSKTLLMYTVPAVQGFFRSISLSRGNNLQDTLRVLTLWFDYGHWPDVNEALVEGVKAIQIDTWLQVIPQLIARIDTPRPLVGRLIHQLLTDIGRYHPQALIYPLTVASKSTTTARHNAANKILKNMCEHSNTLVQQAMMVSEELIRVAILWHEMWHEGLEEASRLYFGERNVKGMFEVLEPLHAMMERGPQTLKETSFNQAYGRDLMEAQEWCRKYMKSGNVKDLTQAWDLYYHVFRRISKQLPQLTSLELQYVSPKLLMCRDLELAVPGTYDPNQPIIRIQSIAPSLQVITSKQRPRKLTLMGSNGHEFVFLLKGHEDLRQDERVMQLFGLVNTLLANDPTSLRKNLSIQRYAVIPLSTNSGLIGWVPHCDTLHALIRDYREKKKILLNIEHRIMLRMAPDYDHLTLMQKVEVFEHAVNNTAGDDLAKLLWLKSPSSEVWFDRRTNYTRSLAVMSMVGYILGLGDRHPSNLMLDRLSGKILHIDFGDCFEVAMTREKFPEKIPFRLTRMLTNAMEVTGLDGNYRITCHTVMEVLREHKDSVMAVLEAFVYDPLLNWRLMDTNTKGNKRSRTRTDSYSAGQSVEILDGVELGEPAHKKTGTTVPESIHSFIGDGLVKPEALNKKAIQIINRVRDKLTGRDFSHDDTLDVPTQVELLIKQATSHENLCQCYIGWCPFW

| SMILES | IC50 [1] | IC50 [2] | PI3Ka IC50 [3] | IC50 [4] |
| --- | --- | --- | --- | --- |
| CCN1CC(C)(C)Oc2nc(N3CCOC[C@@H]3C)nc(-c3ccc(NC(=O)Nc4ccc(C)cn4)cc3)c2C1=O [Example 168, 1-{4-[6-Ethyl-8,8-dimethyl-2-((S)-3-methylmorpholin-4-yl)-5-oxo-5,6,7,8-tetrahydro-9-oxa-1,3,6-triazabenzocyclohepten-4-yl]phenyl}-3-(5-methylpyridin-2-yl)urea] | 48 nM | 18 nM | 1385 nM | 231 nM |
| CCNC(=O)Nc1ccc(-c2nc(N3CCOC[C@@H]3C)nc3c2C(=O)N(CC)CC(C)(C)O3)cc1 [Example 98, 1-Ethyl-3-{4-[6-ethyl-8,8-dimethyl-2-((S)-3-methylmorpholin-4-yl)-5-oxo-5,6,7,8-tetrahydro-9-oxa-1,3,6-triazabenzocyclohepten-4-yl]phenyl}urea] | 20 nM | 26 nM | 1138 nM | 184 nM |
| CCN1CC(C)(C)Oc2nc(N3CC4CCC(C3)O4)nc(-c3ccc(NC(=O)Nc4ccc(N5CCCC5)cn4)cc3)c2C1=O [Example 25, 1-{4-[6-ethyl-8,8-dimethyl-2-(8-oxa-3-azabicyclo[3.2.1]oct-3-yl)-5-oxo-5,6,7,8-tetrahydro-9-oxa-1,3,6-triazabenzocyclohepten-4-yl]phenyl}-3-(5-pyrrolidin-1-ylpyridin-2-yl)urea] | 124 nM | 130 nM | >10000 nM | 196 nM |
| CCN1CC(C)(C)Oc2nc(N3C4CCC3COC4)nc(-c3ccc(NC(=O)Nc4cc(C)nc(C)n4)cc3)c2C1=O [Example 93, 1-(2,6-Dimethylpyrimidin-4-yl)-3-{4-[6-ethyl-8,8-dimethyl-2-(3-oxa-8-azabicyclo[3.2.1]oct-8-yl)-5-oxo-5,6,7,8-tetrahydro-9-oxa-1,3,6-triazabenzocyclohepten-4-yl]phenyl}urea] | 65 nM | 72 nM | >10000 nM | 410 nM |
| CCN1CC(C)(C)Oc2nc(N3C4CCC3COC4)nc(-c3ccc(NC(=O)Nc4ccc(N5CC6CCC(C5)O6)nc4)c(F)c3)c2C1=O [Example 259, 1-{4-[6-Ethyl-8,8-dimethyl-2-(3-oxa-8-azabicyclo[3.2.1]oct-8-yl)-5-oxo-5,6,7,8-tetrahydro-9-oxa-1,3,6-triazabenzocyclohepten-4-yl]-2-fluorophenyl}-3-[6-(8-oxa-3-azabicyclo[3.2.1]oct-3-yl)pyridin-3-yl]urea] | 16 nM | 87 nM | >10000 nM | 87 nM |
| CCN1CC(C)(C)Oc2nc(N3CCOC[C@@H]3C)nc(-c3ccc(NC(=O)Nc4ccc(C(=O)NCC(C)(C)O)cc4)cc3)c2C1=O [Example 219, 4-(3-{4-[6-Ethyl-8,8-dimethyl-2-((S)-3-methylmorpholin-4-yl)-5-oxo-5,6,7,8-tetrahydro-9-oxa-1,3,6-triazabenzocyclohepten-4-yl]phenyl}ureido)-N-(2-hydroxy-2-methylpropyl)benzamide] | 28 nM | 38 nM | 98 nM | 436 nM |
| CCN1CC(C)(C)Oc2nc(N3C4CCC3COC4)nc(-c3ccc(NC(=O)Nc4ccncn4)cc3)c2C1=O [Example 92, 1-{4-[6-Ethyl-8,8-dimethyl-2-(3-oxa-8-azabicyclo[3.2.1]oct-8-yl)-5-oxo-5,6,7,8-tetrahydro-9-oxa-1,3,6-triazabenzocyclohepten-4-yl]phenyl}-3-pyrimidin-4-ylurea] | 12 nM | 40 nM | >10000 nM | 99 nM |
| COCCN1CC(C)(C)Oc2nc(N3CC4CCC(C3)O4)nc(-c3ccc(NC(=O)Nc4ccc(OC)nc4)cc3)c2C1=O [Example 197, 1-{4-[6-(2-Methoxyethyl)-8,8-dimethyl-2-(8-oxa-3-azabicyclo[3.2.1]oct-3-yl)-5-oxo-5,6,7,8-tetrahydro-9-oxa-1,3,6-triazabenzocyclohepten-4-yl]phenyl}-3-(6-methoxypyridin-3-yl)urea] | 150 nM | 117 nM | >10000 nM | 523 nM |
| C[C@@H](CO)OC(=O)Nc1ccc(-c2nc(N3CC4CCC(C3)O4)nc3c2C(=O)N(C)CC(C)(C)O3)cc1 [Example 238, {4-[6,8,8-Trimethyl-2-(8-oxa-3-azabicyclo[3.2.1]oct-3-yl)-5-oxo-5,6,7,8-tetrahydro-9-oxa-1,3,6-triazabenzocyclohepten-4-yl]phenyl}carbamic acid (S)-2-hydroxy-1-methylethyl ester] | > 1000 nM | 678 nM | >10000 nM | 1700 nM |
| CCN1CC(C)(C)Oc2nc(N3C4CCC3COC4)nc(-c3ccc(NC(=O)Nc4ccc(C)nc4)c(F)c3)c2C1=O [Example 229, 1-{4-[6-Ethyl-8,8-dimethyl-2-(3-oxa-8-azabicyclo[3.2.1]oct-8-yl)-5-oxo-5,6,7,8-tetrahydro-9-oxa-1,3,6-triazabenzocyclohepten-4-yl]-2-fluorophenyl}-3-(6-methylpyridin-3-yl)urea] | 19 nM | 43 nM | >10000 nM | 86 nM |
| CCNC(=O)Nc1ccc(-c2nc(N3CC4CCC(C3)O4)nc3c2C(=O)N(C2CCOCC2)CC(C)(C)O3)cc1 [Example 14, 1-{4-[8,8-dimethyl-2-(8-oxa-3-azabicyclo[3.2.1]oct-3-yl)-5-oxo-6-(tetrahydropyran-4-yl)-5,6,7,8-tetrahydro-9-oxa-1,3,6-triazabenzocyclohepten-4-yl]phenyl}-3-ethylurea] | 458 nM | 41 nM | >10000 nM | 1420 nM |
| CCN1CC(C)(C)Oc2nc(N3CC4CCC(C3)O4)nc(-c3ccc(NC(=O)Nc4ccc(N5CCOC[C@H]5C)nc4)c(F)c3)c2C1=O [Example 30, 1-{4-[6-ethyl-8,8-dimethyl-2-(8-oxa-3-azabicyclo[3.2.1]oct-3-yl)-5-oxo-5,6,7,8-tetrahydro-9-oxa-1,3,6-triazabenzocyclohepten-4-yl]-2-fluorophenyl}-3-[6-((R)-3-methylmorpholin-4-yl)pyridin-3-yl]urea] | 15 nM | 21 nM | >10000 nM | 46 nM |
| CCN1CC(C)(C)Oc2nc(N3CC4CCC(C3)O4)nc(-c3ccc(NC(=O)Nc4ccc(N5CC6CCC(C5)O6)cn4)cc3)c2C1=O [Example 251, 1-{4-[6-Ethyl-8,8-dimethyl-2-(8-oxa-3-azabicyclo[3.2.1]oct-3-yl)-5-oxo-5,6,7,8-tetrahydro-9-oxa-1,3,6-triazabenzocyclohepten-4-yl]phenyl}-3-[5-(8-oxa-3-azabicyclo[3.2.1]oct-3-yl)pyridin-2-yl]urea] | 80 nM | 64 nM | >10000 nM | 340 nM |
| COCCN1CC(C)(C)Oc2nc(N3CCOC[C@@H]3C)nc(-c3ccc(NC(=O)Nc4ccon4)cc3)c2C1=O [Example 180, 1-Isoxazol-3-yl-3-{4-[6-(2-methoxyethyl)-8,8-dimethyl-2-((S)-3-methylmorpholin-4-yl)-5-oxo-5,6,7,8-tetrahydro-9-oxa-1,3,6-triazabenzocyclohepten-4-yl]phenyl}urea] | 65 nM | 11 nM | 604 nM | 146 nM |
| CCN1CC(C)(C)Oc2nc(N3CC4CCC(C3)O4)nc(-c3ccc(NC(=O)Nc4ccncc4F)c(F)c3)c2C1=O [Example 76] | 29 nM | 28 nM | 2360 nM | 367 nM |
| CCN1CC(C)(C)Oc2nc(N3CC4CCC(C3)O4)nc(-c3ccc(NC(=O)Nc4cccnc4)c(F)c3)c2C1=O [Example 223, 1-{4-[6-Ethyl-8,8-dimethyl-2-(8-oxa-3-azabicyclo[3.2.1]oct-3-yl)-5-oxo-5,6,7,8-tetrahydro-9-oxa-1,3,6-triazabenzocyclohepten-4-yl]-2-fluorophenyl}-3-pyridin-3-ylurea] | 4 nM | 20 nM | 2070 nM | 61 nM |
| CCN1CC(C)(C)Oc2nc(N3CC4CCC(C3)O4)nc(-c3ccc(NC(=O)NC4COC4)c(F)c3)c2C1=O [Example 137, 1-{4-[6-Ethyl-8,8-dimethyl-2-(8-oxa-3-azabicyclo[3.2.1]oct-3-yl)-5-oxo-5,6,7,8-tetrahydro-9-oxa-1,3,6-triazabenzocyclohepten-4-yl]-2-fluorophenyl}-3-oxetan-3-ylurea] | 241 nM | 29 nM | >10000 nM | 1330 nM |
| CCN1CC(C)(C)Oc2nc(N3CC4CCC(C3)O4)nc(-c3ccc(NC(=O)Nc4ccc(C)nc4)c(F)c3)c2C1=O [Example 185, 1-{4-[6-Ethyl-8,8-dimethyl-2-(8-oxa-3-azabicyclo[3.2.1]oct-3-yl)-5-oxo-5,6,7,8-tetrahydro-9-oxa-1,3,6-triazabenzocyclohepten-4-yl]-2-fluorophenyl}-3-(6-methylpyridin-3-yl)urea] | 20 nM | 24 nM | 5680 nM | 73 nM |
